The source of these data is patent US20160008391A1, “GALACTOSAMINOGALACTAN COMPRISING alpha-1-4 LINKED GALACTOSE AND alpha-1-4 LINKED N-ACETYLGALACTOSAMINE FOR USE IN THE TREATMENT OF AT LEAST ONE INFLAMMATORY DISEASE” (INSTITUT PASTEUR, priority 2013, published 2016).

For data set [1] the following is noted: cited from earlier work.
Data set [2] relates to human PBMCs. The experiment in a line: A. fumigatus conidia-induced cytokine production in human PBMCs. The note with it: 7 days, presence vs absence of recombinant human IL-1RA 10 ng/ml. Type of data set: cell-based. Here is the method:
(§1) A clinical isolate of Aspergillus fumigatus V05-27, which has been characterized previously was used for stimulations (Netea et al., 2003). Conidia and hyphae were prepared and heat-inactivated (HI) as previously described (Chai et al., 2009a). A concentration of 1×10^7/ml was used in the experiments, unless otherwise indicated. C. albicans, strain ATCC MYA-3573 (UC820) (Gow et al., 2007; Lehrer and Cline, 1969). Candida were heat-killed (HK) at 98° C. for 1 hour and used in a final concentration of 1×10^7/ml. Recombinant human IL-1β, IL-23, IL-12 and IL-18 were purchased from R&D Systems (Minneapolis, Minn., USA) and were used in end concentrations of 100 ng/ml, 50 ng/ml, 10 ng/ml and 50 ng/ml respectively. Recombinant human (rh) IL-1Ra (Amgen, Inc., Thousand Oaks, Calif., USA) was used to antagonize IL-1β signalling at a final concentration of 10 ng/ml. Anti-human IL-1Ra (R&D) was used to block IL-1Ra in a final concentration of 10 μg/ml, and was compared to isotype control. Pattern recognition pathways were inhibited in PBMCs by pre-stimulation for 1 hour with a specific inhibitor. LPS derived from Bartonella quitana was used to block TLR4 (Abdollahi-Roodsaz et al., 2007). B. quitana LPS was extracted and purified as described previously (Hirschfeld et al., 1999). Mouse anti-humanTLR-2 (eBioscience, Halle-Zoersel, Belgium) and control mouse IgG1 (eBioscience) were used at a final concentration of 10 μg/mL. Anti-human integrin β2 (αCR3) and control goat IgG were purchased from R&D systems (Minneapolis, Minn., USA) and used in a final concentration of 10 μg/mL. […]
(§2) Venous blood from healthy volunteers was drawn into 10 ml EDTA tubes after written informed consent, after which PBMCs were isolated as previously described (van de Veerdonk et al., 2009). […] The cells were counted using a particle counter (Beckmann Coulter, Woerden, The Netherlands) and the cell number was adjusted to 5×10^6/ml. […]
(§3) Cytokines were measured using commercially available ELISAs (R&D Systems)(Sanquin, Amsterdam, The Netherlands) according to the protocols supplied by the manufacturer. […]

Another data set relates to DSS-induced colitis. Description: Dextran sulfate sodium-induced colitis in WT and p47phox−/− mice. Type of data set: in vivo. The note with it: WT and p47phox−/− mice treated with Anakinra. On the procedure:
Mice received either regular drinking water (control) or 2.5% dextran sulfate sodium (DSS) in drinking water for 7 days and then allowed to recover by drinking water alone for an additional 7 days. GAG was given intraperitoneally (1 mg/kg) daily for a week. Weight changes were recorded daily, and the day after the 7-days of rest mice were killed and tissues were collected for histology and cytokine analysis. Colonic sections were stained with H&E (Takedatsu 2008). To assess colitis severity, stool and histological scores were used that recently were introduced and proven sensitive to experimental therapy (PMID: 21763243).
Colitis was induced in C57BL/6 wild-type (WT) or p47phox^−/− mice that recapitulate several of the features of the human Chronic Granulomatous Disease (CGD) (Huang et al., 1998; Romani et al., 2008). Colitis is a severe complication of CGD patients, the management of which is a challenge because standard immunosuppressive therapy increases the risk of infection in already immunocompromised hosts (Huang et al., 2004). Colitis was induced with dextran sulfate sodium (DSS 2.5% in drinking water for 7 days and then allowed to recover by drinking water alone for an additional 7 days) and the effect of GAG (1 mg/kg intraperitoneally for a week) on colonic injury was assessed. The day after the 7-day of rest, mice were killed and tissues were collected for histology, RNA and cytokine analysis. Colonic sections were stained with H&E, and histology was scored. Cytokines were measured by enzyme-linked immunoabsorbent assay (ELISA) and real time-polymerase chain reaction (RT-PCR) on colonic tissues.

Data set [3] deals with human PBMCs. Description: Cytokine-driven (IL-1β/IL-23, IL-12/IL-18) T-helper cytokine responses in human PBMCs. The following applies: 7 days, presence vs absence of recombinant human IL-1RA 10 ng/ml. It counts as cell-based. Here is the method: as §1, §2, §3
Where [4] appears, read: patients with rheumatoid arthritis.

Regarding “IL-1RA: human recombinant form of interleukin-1 receptor antagonist, commercially produced as anakinra”, in data set [1] (human, in vivo), the “side effect: diarrhea” value is given as 7%, the “side effect: flu-like syndrome” value is 6%, the “side effect: infections of upper respiratory tract” value is on record as 13% and the “side effect: nausea” value is reported as 8%. Also, in data set [1] (human, in vivo), the “side effect: risk of infections” value is 40%, the “side effect: severe infections” value was 2% and the “side effect: sinusitis” value was 7%. In data set [1] (setting [4]), the progressive joint destruction entry is reported as “slows” and the “symptoms of rheumatoid arthritis” value is “reduces”. Further, in the data set on human PBMCs [2], the “IFNγ induction by Aspergillus conidia” value was “reduced”, the “IL-17 induction by Aspergillus conidia” value is on record as “reduced” and the “IL-22 induction by Aspergillus conidia” value is “reduced”. Also, in the data set on DSS-induced colitis, the “cytokine gene expression, compared with the effect of GAG” value was “similar”; the “damage score, compared with the effect of GAG” value is listed as “similar”; the “inflammatory pathology, compared with the effect of GAG” value is recorded as “similar”. In the data set with human PBMCs [3], the “IFNγ induction by IL-12/IL-18” value was “reduced”, the “IL-17 induction by IL-1/IL-23” value is “reduced” and the “IL-22 induction by IL-1/IL-23” value is listed as “reduced”.
